Test results reported in PMC8776094, “Reactive Oxygen Species Production Is Responsible for Antineoplastic Activity of Osmium, Ruthenium, Iridium and Rhodium Half-Sandwich Type Complexes with Bidentate Glycosyl Heterocyclic Ligands in Various Cancer Cell Models” (International Journal of Molecular Sciences, 2022).
“And” between values parts separate entries of the source, which are not always exact repeats. Equal entries are not always repeated. Where two headings read alike, the source gives them in different places.

Assays:
[1] = Determination of the distribution coefficients (logD), n-octanol/PBS; type: physicochemical; details: n-octanol / PBS pH = 7.40, rt
Description: Before starting the experiments, n-octanol was saturated with an aqueous PBS solution (pH = 7.40) and vice versa. A solution of the appropriate complex (approximately 0.2–0.3 mg) in a mixture of 2.50 mL pre-saturated n-octanol and 2.50 mL pre-saturated PBS buffer was made, and the resulting mixture was then vigorously stirred for 3 days at rt. Based on our previous NMR stability experiments, this time is long enough to reach equilibrium among the various ionic complex species. Due to the lipophilic/hydrophilic features of the complexes, those with benzoyl protection could primarily be found in the n-octanol, while the complexes with O-peracetylated and O-deprotected ligands were in the aqueous PBS phase. The corresponding separated solution was centrifuged (ScanSpeed 406G instrument, 4000 RPM for 5 min) and the absorption of the ”stock solution” was determined (VWR UV-1600PC Spectrophotometer, 270–420 nm). Then, 2.00 mL of the stock solution was vigorously stirred with 16.00 mL of pre-saturated n-octanol or PBS solution. After one day had passed, the phases were separated, centrifuged, and the absorption of the solution was measured again. From the absorption difference of the stock solutions, the distribution coefficient (D) was determined using previously described formulae [71].

[2] = test system: A2780 ovarian cancer cells; assay: MTT reduction assay, 4 h, rapid toxicity, A2780; type: cell-based; details: 4 h treatment
Description: (§1) The compounds were tested between 0.001694 and 33.3333 µM, using a 4-hour-long MTT test to assess rapid toxicity and a 48-hour-long SRB assay to assess the long-term effects of the inhibition of proliferation (cytostasis). The MTT assay assesses the activity of mitochondrial complex I and detects rapid, direct toxicity, as well as indicating apoptosis and necrosis. The SRB assay measures the total protein content that is proportional to cell numbers; therefore, the assay can detect changes in cell numbers and can thus be used as a readout for cell proliferation. The SRB assay was performed after 48 h of treatment (with the exception of L428 cells, which were tested for 96 h due to their slower proliferation rate). In this setting, the SRB assay informs us of long-term changes to cell proliferation. We assessed the maximal inhibition within that concentration range, and descriptive statistics were performed. We performed a one-way ANOVA, followed by the Kruskal–Wallis test, regardless of the normal or non-normal distribution of the data. Due to the large number of significance values, the results of the significance calculations are provided in an Excel spreadsheet at https://figshare.com/s/28d14597d5041f08eb08 (accessed on 6 January 2022), among other primary data of the study. Where possible, nonlinear regression was performed on the curves to determine the IC50 values ((inhibitor) vs. response—variable slope (four parameters) method with Graphpad v8.0.1). […] In Table 5, we added the IC50 values that we determined for a set of 4 active ruthenium half-sandwich complexes we identified previously, to be used in subsequent structure-activity relationship (SAR) analyses.
(§2) A2780 cells were cultured in RMPI 1640 medium, supplemented with 10% fetal calf serum, 2 mM glutamine, and 1% penicillin-streptomycin.
The MTT reduction assay measures the activity of mitochondrial complex I and can be used to detect apoptosis and necrosis. The assay was performed similarly to the method used in [72]. Briefly, cells were plated in 96-well plates the day before the assay. Cells were treated with the compounds for 4 h, then MTT was added at 0.5 mg/mL final concentration and the cells were incubated at 37 °C in a cell incubator. The culture media were removed and the reduced MTT dye was dissolved in dimethyl-sulfoxide (DMSO) and plates were measured in a plate photometer (Thermo Scientific Multiscan GO spectrophotometer, Waltham, MA, USA) at 540 nm. On each plate, wells were designed to contain untreated/vehicle-treated cells. In the calculations, the readings for these wells were considered as 1 and all readings were expressed relative to these values.

[3] = test system: A2780 ovarian cancer cells; assay: SRB assay, 48 h, cytostasis, A2780; type: cell-based; details: 48 h treatment
Description: as §1, §2
(§3) The assay was performed similarly to the method used in [73]. Cells were seeded in 96-well plates the day before the assay. Cells were treated with the compounds for 48 h, with the exception of L428, where 96 h of treatment was applied. Cells were fixed with 10% trichloroacetic acid (TCA). Fixed cells were washed in distilled water 3 times, followed by staining with SRB (0.4 m/V% dissolved in 1% acetic acid) for 10 min. The stained cells were washed in 1% acetic acid 5 times; the acetic acid was removed, and the cells were left to dry. Protein-bound SRB was released by adding 100 µL 10 mM Tris base. Plates were measured in a plate photometer (Thermo Scientific Multiscan GO spectrophotometer, Waltham, MA, USA) at 540 nm. On each plate, wells were designed to contain untreated cells. In calculations, the readings for these wells were considered as 1 and all readings were expressed relative to these values.
(§4) Statistical analysis was performed using the 8.0.1 version of Graphpad Prism. Values were tested for normal distribution, using the d’Agostino and Pearson normality test. When necessary, values were log-normalized or were normalized using the Box-Cox normalization method or using a two-step transformation, as indicated in the figure captions. Nonlinear regression was performed using the built-in “[Inhibitor] vs. Response—Variable slope (four parameters), least-square fit” utility of Graphpad, yielding the IC50 and Hill slope values.

[4] = test system: Capan2, a pancreatic adenocarcinoma cell line; design: method as in PMID 34638791; details: SRB assay, 48 h; data previously published; cited from earlier work
[5] = test system: A2780 ovarian cancer cells; design: method as in PMID 34638791; details: SRB assay, 48 h; data previously published; cited from earlier work
[6] = test system: ID8 ovarian cancer cell line; design: method as in PMID 34638791; details: SRB assay, 48 h; data previously published; cited from earlier work
[7] = design: method as in PMID 34638791; details: data previously published; cited from earlier work
[8] = test system: human primary fibroblasts; design: method as in PMID 34638791; details: SRB assay, 48 h, data previously published, cited from earlier work
[9] = test system: ID8 ovarian cancer cell line; assay: SRB assay, 48 h, cytostasis, ID8; type: cell-based; details: 48 h treatment
Description: as §1
ID8 cells were cultured in a high-glucose DMEM (4.5 g/L glucose) medium, supplemented with 4% fetal calf serum, 2 mM glutamine, 1% penicillin-streptomycin, and 1% ITS supplement (I3146).
as §3, §4

[10] = test system: human primary fibroblasts; assay: SRB assay, 48 h, cytostasis, primary fibroblasts; type: cell-based; details: MTT 4 h and SRB 48 h
Description: The compounds were tested between 0.001694 and 33.3333 µM, using a 4-hour-long MTT test to assess rapid toxicity and a 48-hour-long SRB assay to assess the long-term effects of the inhibition of proliferation (cytostasis). The MTT assay assesses the activity of mitochondrial complex I and detects rapid, direct toxicity, as well as indicating apoptosis and necrosis. The SRB assay measures the total protein content that is proportional to cell numbers; therefore, the assay can detect changes in cell numbers and can thus be used as a readout for cell proliferation. The SRB assay was performed after 48 h of treatment (with the exception of L428 cells, which were tested for 96 h due to their slower proliferation rate). In this setting, the SRB assay informs us of long-term changes to cell proliferation. We assessed the maximal inhibition within that concentration range, and descriptive statistics were performed. We performed a one-way ANOVA, followed by the Kruskal–Wallis test, regardless of the normal or non-normal distribution of the data. […]
The assay was performed similarly to the method used in [73]. […] Plates were measured in a plate photometer (Thermo Scientific Multiscan GO spectrophotometer, Waltham, MA, USA) at 540 nm. […] In calculations, the readings for these wells were considered as 1 and all readings were expressed relative to these values. […]

| Molecule | toxicity on A2780 cells in short-term MTT assay (in words) [2] | cytostatic activity on A2780 cells in SRB assay (in words) [3] | Capan2 Max. Inh. (%) [4] [%] | IC50 [4] [µM] | A2780 Max. Inh. (%) [5] [%] | IC50 [5] | IC50 [6] [µM] | ID8 Max. Inh. (%) [6] [%] | LogD [7] | further results |
| --- | --- | --- | --- | --- | --- | --- | --- | --- | --- | --- |
| Cc1ccc(C(C)C)cc1.F[P-](F)(F)(F)(F)F.O=C(OCC1OC(c2noc(-c3ccccn3)n2)C(OC(=O)c2ccccc2)C(OC(=O)c2ccccc2)C1OC(=O)c1ccccc1)c1ccccc1.[Cl][Ru+] (mixture of isomers) [Ru-1] | neither of them showed considerable activity | neither of them showed considerable activity |  |  |  |  |  |  |  | LogD [1]: 2.79 |
| Cc1ccc(C(C)C)cc1.F[P-](F)(F)(F)(F)F.OCC1OC(c2noc(-c3ccccn3)n2)C(O)C(O)C1O.[Cl][Ru+] (mixture of isomers) [Ru-2] | neither of them showed considerable activity | neither of them showed considerable activity |  |  |  |  |  |  |  | LogD [1]: −0.96 |
| Cc1ccc(C(C)C)cc1.F[P-](F)(F)(F)(F)F.O=C(OCC1OC(c2nnc(-c3ccccn3)o2)C(OC(=O)c2ccccc2)C(OC(=O)c2ccccc2)C1OC(=O)c1ccccc1)c1ccccc1.[Cl][Ru+] (mixture of isomers) [Ru-3] |  |  | 100 | 3.27 | 100 | 6.2 µM and 6.19 µM | 5.66 | 100 | 2.41 |  |
| Cc1ccc(C(C)C)cc1.F[P-](F)(F)(F)(F)F.O=C(OCC1OC(c2nnc(-c3ccccn3)o2)C(OC(=O)c2ccccc2)C(OC(=O)c2ccccc2)C1OC(=O)c1ccccc1)c1ccccc1.[Cl][Ru+] (mixture of isomers) [Ru-4] |  |  | 100 | 3.82 | 100 | 4.3 µM and 4.27 µM | 7.94 | 100 | 2.44 |  |
| Cc1ccc(C(C)C)cc1.F[P-](F)(F)(F)(F)F.O=C(OC1COC(c2nnc(-c3ccccn3)o2)C(OC(=O)c2ccccc2)C1OC(=O)c1ccccc1)c1ccccc1.[Cl][Ru+] (mixture of isomers) [Ru-5] |  |  | 100 | 4.97 | 100 | 8.5 µM and 8.54 µM | 6.76 | 100 | 2.04 | Fibroblast Max. Inh. (%) ([8]; ND = not detected): 80%; IC50 ([8]; read-out: Fibroblast IC50): 24.6 µM |
| Cc1ccc(C(C)C)cc1.F[P-](F)(F)(F)(F)F.O=C(OCC1OC(n2cc(-c3ccccn3)nn2)C(OC(=O)c2ccccc2)C(OC(=O)c2ccccc2)C1OC(=O)c1ccccc1)c1ccccc1.[Cl][Ru+] (mixture of isomers) [Ru-6] |  |  | 100 | 2.18 | 100 | 0.87 µM | 2.15 | 100 | 2.85 |  |
| OC[C@H]1O[C@@H](c2noc(-c3ccccn3)n2)[C@H](O)[C@@H](O)[C@@H]1O [Complex L-2, 3-(β-D-Glucopyranosyl)-5-(pyridin-2-yl)-1,2,4-oxadiazole] | practically inactive | practically inactive |  |  |  |  |  |  |  |  |
| Cc1c(C)c(C)[c-](C)c1C.Cc1c(C)c(C)[c-](C)c1C.[Cl-].[Cl-].[Cl-].[Cl-].[Ir+3].[Ir+3] [Ir-dimer, dichloro(pentamethylcyclopentadienyl)iridium(III) dimer] |  | inactive |  |  |  |  |  |  |  | cytostatic activity on ID8 cells, SRB assay (in words) [9]: inactive; cytotoxic or cytostatic activity on fibroblasts (in words) [10]: None of the complexes, Ir-1‒Ir-12, or the Ir-dimer exerted cytotoxic or cytostatic activity on fibroblasts |
| dichloro(pentamethylcyclopentadienyl)rhodium(III) dimer [Rh-dimer] |  | inactive |  |  |  |  |  |  |  | cytostatic activity on ID8 cells, SRB assay (in words) [9]: inactive; cytotoxic or cytostatic activity on fibroblasts (in words) [10]: None of the complexes Rh-3‒Rh-6 or the Rh-dimer exerted cytotoxic or cytostatic activity on fibroblasts |
